From PubChem BioAssay AID1963958 (Molecular Pharmacology Branch, DTP, NCI, 2024)
pIC50: −log10 of the molar value.

Tested on: MDA-MB-231 multicell spheroids, viability
Assay: Anticancer human tumor MDA-MB-231 cell line growth inhibition [PI3K];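 also: spheroids exposed to agents for seven days before reading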;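 as to viability, T/C: percent of vehicle control luminescence with DMSO treated spheroids as 100%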
Conditions: for pIC50: curve of first compound; for viability, T/C: stronger effect = lower value
Method in brief: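 Combination activity was assessed by viability in multicellular tumor spheroids carrying HUVEC and MSC components. Agents were tested with PI3K inhibitors from a Cmax-based top dose (or 10 microM) downward in half-log increments.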

CC(=O)c1c(C)c2cnc(Nc3ccc(N4CCNCC4)cn3)nc2n(C2CCCC2)c1=O + Cc1nc(NC(=O)N2CCCC2C(N)=O)sc1-c1ccnc(C(C)(C)C(F)(F)F)c1
pIC50 (second compound 0.0316 µM): 7.16 | pIC50 (second compound 0.1 µM): 7.28 | pIC50 (second compound 0.316 µM): 7.56 | pIC50 (second compound 1 µM): 7.66 | pIC50 (second compound 3.16 µM): 7.72 | pIC50 (second compound 10 µM): 7.82 | viability, T/C (second compound 0.0316 µM, first compound 0.000316 µM): 98.2% | viability, T/C (second compound 0.0316 µM, first compound 0.001 µM): 87.3% | viability, T/C (second compound 0.0316 µM, first compound 0.00316 µM): 92.4% | viability, T/C (second compound 0.0316 µM, first compound 0.01 µM): 82.7% | viability, T/C (second compound 0.0316 µM, first compound 0.0316 µM): 66.3% | viability, T/C (second compound 0.0316 µM, first compound 0.1 µM): 42.5% | viability, T/C (second compound 0.1 µM, first compound 0.000316 µM): 79.2% | viability, T/C (second compound 0.1 µM, first compound 0.001 µM): 85.5% | viability, T/C (second compound 0.1 µM, first compound 0.00316 µM): 81.4% | viability, T/C (second compound 0.1 µM, first compound 0.01 µM): 73.4% | viability, T/C (second compound 0.1 µM, first compound 0.0316 µM): 59.7% | viability, T/C (second compound 0.1 µM, first compound 0.1 µM): 37.8% | viability, T/C (second compound 0.316 µM, first compound 0.000316 µM): 73.8% | viability, T/C (second compound 0.316 µM, first compound 0.001 µM): 72.8% | viability, T/C (second compound 0.316 µM, first compound 0.00316 µM): 71.8% | viability, T/C (second compound 0.316 µM, first compound 0.01 µM): 60.9% | viability, T/C (second compound 0.316 µM, first compound 0.0316 µM): 48.8% | viability, T/C (second compound 0.316 µM, first compound 0.1 µM): 34% | viability, T/C (second compound 1 µM, first compound 0.000316 µM): 70.5% | viability, T/C (second compound 1 µM, first compound 0.001 µM): 64.9% | viability, T/C (second compound 1 µM, first compound 0.00316 µM): 63% | viability, T/C (second compound 1 µM, first compound 0.01 µM): 59% | viability, T/C (second compound 1 µM, first compound 0.0316 µM): 46% | viability, T/C (second compound 1 µM, first compound 0.1 µM): 29.6% | viability, T/C (second compound 3.16 µM, first compound 0.000316 µM): 67.2% | viability, T/C (second compound 3.16 µM, first compound 0.001 µM): 66.6% | viability, T/C (second compound 3.16 µM, first compound 0.00316 µM): 61.1% | viability, T/C (second compound 3.16 µM, first compound 0.01 µM): 56.3% | viability, T/C (second compound 3.16 µM, first compound 0.0316 µM): 44.8% | viability, T/C (second compound 3.16 µM, first compound 0.1 µM): 33.2% | viability, T/C (second compound 10 µM, first compound 0.000316 µM): 64% | viability, T/C (second compound 10 µM, first compound 0.001 µM): 60.9% | viability, T/C (second compound 10 µM, first compound 0.00316 µM): 58.4% | viability, T/C (second compound 10 µM, first compound 0.01 µM): 52.4% | viability, T/C (second compound 10 µM, first compound 0.0316 µM): 45.1% | viability, T/C (second compound 10 µM, first compound 0.1 µM): 31%
